Assay results from patent US20050054620A1, “Paricalcitol as a chemotherapeutic agent” (priority 2003, published 2005).
“Also recorded” adds a separate entry of the source.

What was measured:
HL-60 cells [1] = assay: Cell cycle analysis by flow cytometry; type: cell-based, human; details: 10^−7M, 72 hr
Method: For cell cycle analysis, cells were exposed to 10^−7M 1,25(OH)2D3, 10^−7M paricalcitol or vehicle control for either 3 or 4 days. Total cells, both in suspension and adherent, were collected, washed, suspended in cold PBS. Then cells were fixed in 75% chilled methanol and stained with propidium iodine. Cell cycle status was analyzed on a Becton Dickinson Flow Cytometer.
Cell cycle analysis was performed as follows: after treatment of 5×10^4 of cells with a selected compound, cells were collected, washed and suspended in cold PBS. Cells were fixed in chilled 75% methanol and stained with propidium iodine. Cell cycle status was analyzed on a Becton Dickinson Flow Cytometer used standart protocols.

HL-60 cells [2] = assay: CD14 expression by flow cytometry; type: cell-based, human; details: for cell surface CD14 expression: paricalcitol 0.01 μM, arsenic trioxide 0.8 μM, 3 days
Method: In order to measure cell surface CD14 antigen on HL-60 cells, promyelocytic leukemia cell line, HL-60, was treated with either 1,25(OH)2D3 or paricalcitol (10^−7M) for 4 days and examined for CD14 expression by flow cytometry using CD14 antibody (DAKO, Carpinteria, Calif.), as described previously (Hisatake et al., supra, 2001). Murine IgG1 antibody (DAKO) was used as a control.
Measurement of cell surface CD14 antigen on HL-60 cells by flow cytometry using CD14 antibody (DAKO, Carpinteria, Calif.), was determined as described previously (Hisatake et al. Blood 97:2427-2433 (2001)). Murine IgG1 antibody (DAKO) was used as a control.

HL-60 cells [3] = assay: Morphological analysis, Wright-Giemza stain; type: cell-based, human; details: 10^−7M, 120 hrs
Method: (A) Cell cycle analysis of HL-60 cells by flow cytometry. HL-60 cells were cultured with paricalcitol (10^−7 M) for 72 hrs, harvested and stained with propidium iodine (PI). Control cells were treated with vehicle alone. Results represent the mean±SD of three independent experiments. (B) HL-60 or NB-4 cells were treated with either paricalcitol (10^−7 M) or 1,25(OH)2D3 (10^−7 M). Cell lysates were prepared after 72 hrs and analyzed by Western blot with a series of antibodies (p21WAF1, p27KIP1, PTEN). Control cells were treated with vehicle alone. The amounts of protein were normalized by comparison to levels of GAPDH. […] Dashed line indicates negative control antibody; black area, CD14 antibody. CD14 positive cells are in the area shown by M2. (D) HL-60 cells were cultured with paricalcitol (10^−7 M) for 120 hrs, fixed and stained with Wright-Giemza stain for morphological analysis.

NCI-H929 cells = assay: TUNEL assay of apoptosis; type: cell-based, human; details: for apoptotic cells by TUNEL assay: 0.01 μM each, 3 days
Method: In FIG. […] Results represent the mean±SD of three independent experiments. A TUNEL assay was performed for immunohistochemical detection and quantification of programmed cell death at the single cell level, based on labeling of DNA strand breaks using the In Situ Cell Death Detection, POD (Roche, Indianapolis, Ind.). Early apoptosis was also detected by measuring annexin V protein in the cell membrane using Annexin V-FITC Kit (CLONTECH, Palo Alto, Calif.) followed by flow cytometric analysis.

[4] = system: NB-4 myeloid leukemia cells; assay: MTT assay; type: cell-based, human; details: 4 days exposure
[5] = system: THP-1 myeloid leukemia cells; assay: MTT assay; type: cell-based, human; details: 4 day exposure
24-hydroxylase mRNA [6] = assay: RT-PCR of 24-hydroxylase mRNA in HL-60 cells; type: cell-based, human; details: paricalcitol 0.01 μM, arsenic trioxide 0.8 μM, after 24 hrs
Method: (§1) HL-60 and NB-4 myeloid leukemia cell lines were treated with paricalcitol (0.01 μM for HL-60, 0.1 μM for NB-4) and/or arsenic trioxide (0.8 μM for HL-60, 0.6 μM for NB-4). Control cells were treated with vehicle alone. […] Cell lysates were also made and used for Western blot which was probed with antibodies to C/EBPβ. (B) Cell lysate of HL-60 cells were made after 3 days and used for Western blot which was probed sequentially with antibodies to Bcl-2, BclXL and Bax (C) Cell lysates of HL-60 cells were made after 1, 2 or 3 days and used for Western blot which was probed sequentially with antibodies to phosphorylated ERK. (D) After pretreatment either with or without […] of PD98059 for 1 hour, HL-60 cells were treated with paricalcitol (0.01 μM) and/or arsenic trioxide (0.8 μM) for 2 days. Control cells were treated with vehicle alone. CD14 expression was measured by flow cytometry.
(§2) In FIG. 6B, HT-29 colon cancer cells were treated with paricalcitol (10^−7M) for 0, 6, 12 or 24 hrs and RNA was harvested. Expression of 24 hydroxylase mRNA was analysed by RT-PCR. The amounts of mRNA were normalized by comparison to 18S RNA. In FIG. 6C, mononuclear cells extracted from spleens of either wild type or VDR knock-out mice were treated with paricalcitol (10^−8M) for either 12 or 24 hrs, and RNA was harvested. Expression of 24 hydroxylase mRNA was analysed by RT-PCR. […]

24-hydroxylase mRNA [7] = assay: RT-PCR of 24-hydroxylase mRNA in NB-4 cells; type: cell-based, human; details: paricalcitol 0.1 μM, arsenic trioxide 0.6 μM, after 24 hrs
Method: as §1, §2

wild type U937 cells = assay: CD14 expression by flow cytometry; type: cell-based, human; details: paricalcitol 0.01 μM, arsenic trioxide 0.4 μM
From the text: To examine the association between the presence of the fusion protein and the effect of the combination treatment, an engineered U937 monocytic leukemia cell line (PR9) that has stable integration of the PML-RARa cDNA under the control of the Zn^2+-inducible murine metallothionein 1 promoter was used. Also used were U937 cells transfected with the MT vector (B41) as a control.

[8] = humans, cited from earlier work

Molecule | decrease of cells in S phase (HL-60 cells [1]) | increase of cells in G0/G1 phase (HL-60 cells [1]) | increase of cells in G2/M phase (HL-60 cells [1]) | cells induced to express CD14 (HL-60 cells [2]; 10^−7M, 96 hrs) | cell surface CD14 expression (HL-60 cells [2]) | morphological examination (HL-60 cells [3]) | apoptotic cells by TUNEL assay (NCI-H929 cells) | apoptotic cells (TUNEL) (NCI-H929 cells; 10^−7M, 96 hrs, diluant control 4%) | antiproliferative effect by MTT assay [4] | antiproliferative effect by MTT assay [5] | mRNA levels of 24-hydroxylase (24-hydroxylase mRNA [6]) | mRNA levels of 24-hydroxylase (24-hydroxylase mRNA [7]) | CD14 expressing cells (wild type U937 cells) | peak serum levels [8] | serum half-life ([8]; paricalcitol compared with 1,25(OH)2D3)
C[C@H](/C=C/[C@H](C)C(C)(C)O)[C@H]1CC[C@H]2/C(=C/C=C3C[C@@H](O)C[C@H](O)C3)CCC[C@]12C [paricalcitol, 19-nor-1,25, (OH)2D3] | 33% | 16% | 17% | 65% | increased cell surface CD14 | monocytic differentiation | increased | 31% | suppressed the cell growth in a dose-dependent manner; also recorded: sensitive | sensitive | increased | increased | increased CD14 expressing monoicytic cells | 1850 pg/mL | similar
arsenic trioxide |  |  |  |  | did not |  | increased |  | suppressed the cell growth in a dose-dependent manner |  |  |  | did not induce CD14 expression |  | 
